The values below come from patent publication US12630563B2, “Macrocyclic RIP2-kinase inhibitors” (Oncodesign S.A., priority 2020, dated 2026).

SMILES strings stand for the structures.

For this assay, the target named is T1, recombinant hRIPK2 protein (kinase domain aa 1-299-His-tagged) (Homo sapiens, UniProt O43353).
T1 construct: kinase domain aa 1-299-His-tagged; purchased Life Technologies PR7829A
The assay can be described thus: RIPK2 AlphaLISA assay (displacement of bead-bound CZC-8004 from hRIPK2). It is filed as binding. The conditions noted are these: recombinant hRIPK2 kinase domain 10 nM, 2 h at 23° C. The method, boiled down: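 His-tagged kinase domain (10 nM, as diluted) was mixed with compound (0.8% DMSO), acceptor beads bearing the probe CZC-8004 and Ni2+ donor beads. After 2 h at 23 °C, AlphaLISA signal was read. Loss of signal reflects displacement of the probe from RIPK2.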
On the technique in general: In Alpha technology, singlet oxygen from a donor bead excites a nearby acceptor bead.

T1 sequence (O43353 1-299): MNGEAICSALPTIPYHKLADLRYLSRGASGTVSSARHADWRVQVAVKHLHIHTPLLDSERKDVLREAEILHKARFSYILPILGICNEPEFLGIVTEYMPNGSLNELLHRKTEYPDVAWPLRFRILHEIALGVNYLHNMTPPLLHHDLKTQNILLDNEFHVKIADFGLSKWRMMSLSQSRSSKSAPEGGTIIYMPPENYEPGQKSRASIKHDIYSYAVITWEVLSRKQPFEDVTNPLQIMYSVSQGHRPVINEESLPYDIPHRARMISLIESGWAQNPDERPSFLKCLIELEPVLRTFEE

On to `CCN(C)C(=O)c1cc2cc(c1)-c1cnn3cc(C)c(nc13)OC[C@@H]1C[C@@H](OC)C(=O)N1CCN2` [Example 62, (12R,14S)-N-ethyl-12-methoxy-N,18-dimethyl-11-oxo-16-oxa-7,10,20,21,24-pentaazapentacyclo[15.5.2.1^2,6.0^10,^14.0^20,^23]pentacosa-1(23),2(25),3,5,17(24),18,21-heptaene-4-carboxamide], for which the IC50 – broadly, the point on the concentration scale where inhibition reaches its midpoint – was under 10 nM.

For the compound `COc1cc2cc(c1)-c1cnn3ccc(nc13)OC[C@@H]1C[C@@H](OC(C)C)C(=O)N1CCN2` [Example 16, (12R,14S)-4-methoxy-12-(propan-2-yloxy)-16-oxa-7,10,20,21,24-pentaazapentacyclo[15.5.2.1^2,6.0^10,^14.0^20,^23]pentacosa-1(23),2,4,6(25),17(24),18,21-heptaen-11-one], the IC50 was under 10 nM.

On to `CCOc1cc2cc(c1)-c1cnn3cc(OC)c(nc13)OC[C@@H]1C[C@@H](OCCOC)C(=O)N1CCN2` [Example 140, (12R,14S)-4-ethoxy-18-methoxy-12-(2-methoxyethoxy)-16-oxa-7,10,20,21,24-pentaazapentacyclo[15.5.2.1^2,6.0^10,^14.0^20,^23]pentacosa-1(23),2,4,6(25),17(24),18,21-heptaen-11-one], for which the IC50 was under 10 nM.

On to `CCOc1cc2cc(c1)-c1cnn3ccc(nc13)OC[C@@H]1C[C@@H](OC)C(=O)N1CCN2` [Example 7, (12R,14S)-4-ethoxy-12-methoxy-16-oxa-7,10,20,21,24-pentaazapentacyclo[15.5.2.1^2,6.0^10,^14.0^20,^23]pentacosa-1(23),2(25),3,5,17(24),18,21-heptaen-11-one], for which the IC50 is under 10 nM.

Turning to `CO[C@@H]1C[C@H]2COc3ccn4ncc(c4n3)-c3cc(F)c(F)c(c3)NCCN2C1=O` [Example 29, (12R,14S)-4,5-difluoro-12-methoxy-16-oxa-7,10,20,21,24-pentaazapentacyclo[15.5.2.1^2,6.0^10,^14.0^20,^23]pentacosa-1(23),2(25),3,5,17(24),18,21-heptaen-11-one], the IC50 is under 10 nM.

Take `COCCO[C@@H]1C[C@H]2COc3ccn4ncc(c4n3)-c3cc(cc(C(=O)C4CC4)c3)NCCN2C1=O` [Example 101, (12R,14S)-4-cyclopropanecarbonyl-12-(2-methoxyethoxy)-16-oxa-7,10,20,21,24-pentaazapentacyclo[15.5.2.1^2,6.0^1°,^14.0^2°,^23]pentacosa-1(23),2,4,6(25),17(24),18,21-heptaen-11-one]: the IC50 is 100 to 11000 nM.

For `CC(C)O[C@@H]1C[C@H]2COc3ccn4ncc(c4n3)-c3cc(F)cc(c3)NCCN2C1=O` [Example 9, (12R,14S)-4-fluoro-12-(propan-2-yloxy)-16-oxa-7,10,20,21,24-pentaazapentacyclo[15.5.2.1^2,6.0^10,^14.0^20,^23]pentacosa-1(23),2,4,6(25),17(24),18,21-heptaen-11-one], the IC50 was under 10 nM.

Take `COc1cc2cc(c1)-c1cnn3cc(C)c(nc13)OC[C@@H]1C[C@@H](OC)C(=O)N1CCN2` [Example 19, (12R,14S)-4,12-dimethoxy-18-methyl-16-oxa-7,10,20,21,24-pentaazapentacyclo[15.5.2.1^2,6.0^10,^14.0^20,^23]pentacosa-1(23),2(25),3,5,17(24),18,21-heptaen-11-one]: the IC50 is under 10 nM.

Regarding `CO[C@@H]1C[C@H]2COc3ccn4ncc(c4n3)-c3cc(cc(OCc4ccccc4)c3)NCCN2C1=O` [Example 14, (12R, 14S)-4-(benzyloxy)-12-methoxy-16-oxa-7,10,20,21,24-pentaazapentacyclo[15.5.2.1^2,6.0^10,14.0^20,^23]pentacosa-1(23),2,4,6(25),17(24),18,21-heptaen-11-one], the IC50 is 10 to 100 nM.

As to `CCOC(=O)N1CCN2C(=O)[C@H](OC)C[C@H]2COc2ccn3ncc(c3n2)-c2cc(F)cc1c2` [Example 73, Ethyl (12R,14S)-4-fluoro-12-methoxy-11-oxo-16-oxa-7,10,20,21,24-pentaazapentacyclo[15.5.2.1^2,6.0^1°,^14.0^2°,^23]pentacosa-1(23),2,4,6(25),17(24),18,21-heptaene-7-carboxylate], the IC50 lay within 10 to 100 nM.

Consider `O=C1[C@H](OCC2CC2)C[C@H]2COc3ccn4ncc(c4n3)-c3cc(F)cc(c3)NCCN12` [Example 11, (12R,14S)-12-(cyclopropylmethoxy)-4-fluoro-16-oxa-7,10,20,21,24-pentaazapentacyclo[15.5.2.1^2,6.0^10,^14.0^20,^23]pentacosa-1(23),2(25),3,5,17(24),18,21-heptaen-11-one], for which the IC50 was under 10 nM.

For the compound `COc1cc2cc(c1)-c1cnn3ccc(nc13)OC[C@@H]1C[C@@H](OC)C(=O)N1CCN2` [Example 5, (12R,14S)-4,12-d i methoxy-16-oxa-7,10,20,21,24-pentaazapentacyclo[15.5.2.1^2,6.0^10,^14.0^20,^23]pentacosa-1(23),2(25),3,5,17(24),18,21-heptaen-11-one], the IC50 was under 10 nM.

With `CC#Cc1cc2cc(c1)-c1cnn3ccc(nc13)OC[C@@H]1C[C@@H](OC)C(=O)N1CCN2` [Example 88, (12R,14S)-12-methoxy-4-(prop-1-yn-1-yl)-16-oxa-7,10,20,21,24-pentaazapentacyclo[15.5.2.1^2,6.0^1°,^14.0^2°,^23]pentacosa-1(23),2,4,6(25),17(24),18,21-heptaen-11-one], the IC50 is under 10 nM.

As for `O=C1[C@H](OC2CCC2)C[C@H]2COc3ccn4ncc(c4n3)-c3cc(F)cc(c3)NCCN12` [Example 10, (12R,14S)-12-cyclobutoxy-4-fluoro-16-oxa-7,10,20,21,24-pentaazapentacyclo[15.5.2.1^2,6.0^10,^14.0^20,^23]pentacosa-1(23),2,4,6(25),17(24),18,21-heptaen-11-one], the IC50 was under 10 nM.

For the compound `[2H]C([2H])([2H])C([2H])([2H])O[C@@H]1C[C@H]2COc3ccn4ncc(c4n3)-c3cc(cc(OC)c3)NCCN2C1=O` [Example 110, (12R,14S)-12-(H5)ethoxy-4-methoxy-16-oxa-7,10,20,21,24-pentaazapentacyclo[15.5.2. 1^2,6.0^10,^14.0^20,^23]pentacosa-1(23),2,4,6(25),17(24),18,21-heptaen-11-one], the IC50 was under 10 nM.

On to `CO[C@@H]1C[C@H]2COc3ccn4ncc(c4n3)-c3cc(cc(-c4ncno4)c3)NCCN2C1=O` [Example 109, (12R,14S)-12-methoxy-4-(1,2,4-oxadiazol-5-yl)-16-oxa-7,10,20,21,24-pentaazapentacyclo[15.5.2.1^2,6.0^1°,^14.0^2°,^23]pentacosa-1(23),2(25),3,5,17(24),18,21-heptaen-11-one], for which the IC50 was under 10 nM.

In the case of `COCCO[C@@H]1C[C@H]2COc3nc4c(cnn4cc3OC)-c3cc(cc(C(C)=O)c3)NCCN2C1=O` [Example 99, (12R,14S)-4-acetyl-18-methoxy-12-(2-methoxyethoxy)-16-oxa-7,10,20,21,24-pentaazapentacyclo[15.5.2.1^2,6.0^10,^14.0^20,^23]pentacosa-1(23),2(25),3,5,17(24),18,21-heptaen-11-one], the IC50 is under 10 nM.

With `COc1cc2cc(c1F)NCCN1C(=O)[C@H](OC)C[C@H]1COc1ccn3ncc-2c3n1` [Example 27, (12R,14S)-5-fluoro-4,12-dimethoxy-16-oxa-7,10,20,21,24-pentaazapentacyclo[15.5.2.1^2,6.0^10,^14.0^20,^23]pentacosa-1(23),2,4,6(25),17(24),18,21-heptaen-11-one], the IC50 is under 10 nM.

Turning to `CCO[C@@H]1C[C@H]2COc3ccn4ncc(c4n3)-c3cc(O)cc(c3)NCCN2C1=O` [Example 96, (12R,14S)-12-ethoxy-4-hydroxy-16-oxa-7,10,20,21,24-pentaazapentacyclo[15.5.2.1^2,6.0^1°,^14.0^2°,^23]pentacosa-1(23),2(25),3,5,17(24),18,21-heptaen-11-one], the IC50 was under 10 nM.

Consider `CO[C@@H]1C[C@H]2COc3ccn4ncc(c4n3)-c3cc(cc(OCc4cccnc4)c3)NCCN2C1=O` [Example 44, (12R,14S)-12-methoxy-4-(pyridin-3-ylmethoxy)-16-oxa-7,10,20,21,24-pentaazapentacyclo[15.5.2.1^2,6.0^1°,^14.0^2°,^23]pentacosa-1 (23),2(25),3,5,17(24),18,21-heptaen-11-one], for which the IC50 lay within 10 to 100 nM.

Turning to `COCCO[C@@H]1C[C@H]2COc3nc4c(cnn4cc3OCCO)-c3cc(cc(OC)c3)NCCN2C1=O` [Example 139, (12R,14S)-18-(2-hydroxyethoxy)-4-methoxy-12-(2-methoxyethoxy)-16-oxa-7,10,20,21,24-pentaazapentacyclo[15.5.2.1^2,6.0^1°,^14.0^2°,^23]pentacosa-1(23),2,4,6(25),17(24),18,21-heptaen-11-one], the IC50 is under 10 nM.

As to `C#Cc1cc2cc(c1)-c1cnn3ccc(nc13)OC[C@@H]1C[C@@H](OCCOC)C(=O)N1CCN2` (racemic) [Example 118, (12R,14S)-4-ethynyl-12-(2-methoxyethoxy)-16-oxa-7,10,20,21,24-pentaazapentacyclo[15.5.2.1^2,6.0^10,^14.0^20,^23]pentacosa-1(23),2(25),3,5,17(24),18,21-heptaen-11-one], the IC50 was under 10 nM.

Regarding `COc1cc2cc(c1)-c1cnn3ccc(nc13)OC[C@@H]1C[C@@H](OC)C(=O)N1CC(C)N2` (single isomer, unassigned) [Example 106, (8R*,12R,14S)-4,12-dimethoxy-8-methyl-16-oxa-7,10,20,21,24-pentaazapentacyclo[15.5.2.1^2,6.0^1°,^14.0^2°,^23]pentacosa-1(23),2,4,6(25),17(24),18,21-heptaen-11-one], the IC50 lay in the range of 10 to 100 nM.

Turning to `COCCO[C@@H]1C[C@H]2COc3ccn4ncc(c4n3)-c3cc(C#N)cc(c3)NCCN2C1=O` (racemic) [Example 114, (12R,14S)-12-(2-methoxyethoxy)-11-oxo-16-oxa-7,10,20,21,24-pentaazapentacyclo[15.5.2.1^2,6.0^10,^14.0^20,^23]pentacosa-1(23),2,4,6(25),17(24),18,21-heptaene-4-carbonitrile], the IC50 was under 10 nM.
